Measurements published in patent US20190382396A1, “SALTS OF BICYCLO[1.1.1]PENTANE INHIBITORS OF DUAL LEUCINE ZIPPER (DLK) KINASE FOR THE TREATMENT OF DISEASE” (Board of Regents, The University of Texas System, priority 2018, published 2019).
Where two headings read alike, the source gives them in different places.

What was measured:
Assay type in all cases: physicochemical
[1] = Solubility in physiologically relevant solutions (SGF, FaSSIF, FeSSIF); conditions: 25±0.5° C.; for solubility at 24 h: 25 °C, thermodynamic from solid
Procedure: Solubility of the free base 1 and the selected salts 8, 9, 10, and 11 in physiologically relevant solutions were examined. For each material, aliquots were added to 2 ml vials containing 500 uL of either SGF, FaSSIF, or FeSSIF, which were then sealed. The mixtures were kept shaking by thermomixer at 700 rpm, 25±0.5° C. for 24 h to facilitate the dissolution and then centrifuged by 96-well plates at 3000 rpm for 2 min. The filter liquors were diluted with diluents (ACN/water, 50/50) and analyzed by HPLC.

[2] = Stability (50° C., 40° C./75% RH, light; 1 week); conditions: for XRPD change? / purity: bulk, 1 week
Procedure: The stability of the free base 1 and the selected salts 8, 9, 10, and 11 was evaluated. For each material, aliquots were set up at each of conditions (50° C., 40° C./75% RH, light) at given time points (initial and 1 week). PXRD diffractograms of the hydrogen fumarate salt 11 is shown in FIG. 17, with trace (a) showing the initial salt, trace (b) showing the salt after light treatment, trace (c) showing the salt after storage at 40° C. and 75% relative humidity for 1 week, and (d) showing the salt after storage at 50° C. for 1 week.

[3] = Dynamic vapor sorption (DVS), hygroscopicity
Procedure: Dynamic vapor sorption (“DVS”) was performed at 25° C., using approx 10-15 mg of sample and N2 gas at a flow rate of 200 mL/min, dm/dt=0.01% min, minimum dm/dt stability duration of 10 min, max equilibration time of 180 min, drying at 0% RH for 120 min, scanning from 0% RH to 90% RH to 0% RH with a step size of 10% RH.
Total cycling time varied, but in all cases was about 200-250 min.

Work on `CC(C)c1nc(-c2cnc(N)c(OC(F)(F)F)c2)cn1C12CC(N3CCOCC3)(C1)C2.O=C(O)CC(O)(CC(=O)O)C(=O)O` [Example 8, 5-(2-isopropyl-1-(3-morpholinobicyclo[1.1.1]pentan-1-yl)-1H-imidazol-4-yl)-3-(trifluoromethoxy)pyridin-2-amine dihydrogen citrate] yielded a solubility at 24 h ([1]; simulated gastric fluid, SGF, read-out: Solubility SGF Conc) of 6330 µg/mL, a solubility at 24 h ([1]; FaSSIF, read-out: Solubility FaSSIF Conc) of 113 µg/mL and a solubility at 24 h ([1]; FeSSIF, read-out: Solubility FeSSIF Conc) of 773 µg/mL. For the same compound, the “FaSSIF pH after 24 h” value ([1]; FaSSIF) was 5.53, the “FeSSIF pH after 24 h” value ([1]; FeSSIF) was 4.86 and the “SGF pH after 24 h” value ([1]; SGF) was 3.26. The “XRPD change?” value ([2]; 40° C., 75% RH) was “no”, the purity ([2]; 40° C., 75% RH) was 99.41% and the “XRPD change?” value ([2]; 50° C.) was “no”. For the same compound, the purity ([2]; 50° C.) was 98.91%, the initial purity ([2]; initial (before storage)) was 99.58% and the “XRPD change?” value ([2]; light) was “no”. It also gave a purity ([2]; light) of 99.44%, a Maximum sorption ([3]; DVS, 25° C.) of 0.60% and a Hygroscopicity (0-40% RH) ([3]; DVS, 25° C., 0-40% RH) of 0.17%. For the same compound, the Hygroscopicity (0-90% RH) ([3]; DVS, 25° C., 0-90% RH) was 0.6%, the “Change in mass, Desorption” value ([3]; DVS, Target % P/P0 0.0) was 0.0373% and the “Change in mass, Sorption” value ([3]; DVS, Target % P/P0 0.0) was 0.0000%. The “Change in mass, Desorption” value ([3]; DVS, Target % P/P0 10.0) was 0.0913%, the “Change in mass, Hysteresis” value ([3]; DVS, Target % P/P0 10.0) was 0.0426% and the “Change in mass, Sorption” value ([3]; DVS, Target % P/P0 10.0) was 0.0487%. For the same compound, the “Change in mass, Desorption” value ([3]; DVS, Target % P/P0 20.0) was 0.1293%, the “Change in mass, Hysteresis” value ([3]; DVS, Target % P/P0 20.0) was 0.0411% and the “Change in mass, Sorption” value ([3]; DVS, Target % P/P0 20.0) was 0.0882%. The “Change in mass, Desorption” value ([3]; DVS, Target % P/P0 30.0) was 0.1757%, the “Change in mass, Hysteresis” value ([3]; DVS, Target % P/P0 30.0) was 0.0502% and the “Change in mass, Sorption” value ([3]; DVS, Target % P/P0 30.0) was 0.1255%. For the same compound, the “Change in mass, Desorption” value ([3]; DVS, Target % P/P0 40.0) was 0.2145%, the “Change in mass, Hysteresis” value ([3]; DVS, Target % P/P0 40.0) was 0.0418% and the “Change in mass, Sorption” value ([3]; DVS, Target % P/P0 40.0) was 0.1727%. The “Change in mass, Desorption” value ([3]; DVS, Target % P/P0 50.0) was 0.2609%, the “Change in mass, Hysteresis” value ([3]; DVS, Target % P/P0 50.0) was 0.0418% and the “Change in mass, Sorption” value ([3]; DVS, Target % P/P0 50.0) was 0.2191%. The “Change in mass, Desorption” value ([3]; DVS, Target % P/P0 60.0) was 0.3119%, the “Change in mass, Hysteresis” value ([3]; DVS, Target % P/P0 60.0) was 0.0388% and the “Change in mass, Sorption” value ([3]; DVS, Target % P/P0 60.0) was 0.2731%. The “Change in mass, Desorption” value ([3]; DVS, Target % P/P0 70.0) was 0.3743%, the “Change in mass, Hysteresis” value ([3]; DVS, Target % P/P0 70.0) was 0.0320% and the “Change in mass, Sorption” value ([3]; DVS, Target % P/P0 70.0) was 0.3423%. The “Change in mass, Desorption” value ([3]; DVS, Target % P/P0 80.0) was 0.4565%, the “Change in mass, Hysteresis” value ([3]; DVS, Target % P/P0 80.0) was 0.0228% and the “Change in mass, Sorption” value ([3]; DVS, Target % P/P0 80.0) was 0.4336%. The “Change in mass, Desorption” value ([3]; DVS, Target % P/P0 90.0) was 0.6040%, the “Change in mass, Sorption” value ([3]; DVS, Target % P/P0 90.0) was 0.6040% and the “Hygroscopicity; form change” value ([3]; form change after DVS) was “no change”.
